{
  "source": "PubChem BioAssay AID588539",
  "about": "(The Scripps Research Institute Molecular Screening Center, 2011)",
  "test": "cell cycle phase distribution in DLD-1 cells, late-stage follow-up, counter-screen for KLF5 inhibitor project, flow cytometry, propidium iodide, powder samples (AID 588539)",
  "settings": "DLD-1 cell cycle, at 10 µM; for G1 cells: G1 phase fraction; for G2/M cells: G2/M phase fraction; for S cells: S phase fraction; for subG1 cells: stronger effect = higher value",
  "data": [
    {"smiles": "CN(C(=O)COC(=O)/C=C/c1cccc([N+](=O)[O-])c1)C1CCS(=O)(=O)C1", "note": "(stereo not drawn)", "values": [
      {"measurement": "G1 cells", "setting": "24 h", "value": 39.4, "unit": "%"},
      {"measurement": "G2/M cells", "setting": "24 h", "value": 34.7, "unit": "%"},
      {"measurement": "S cells", "setting": "24 h", "value": 18.3, "unit": "%"},
      {"measurement": "subG1 cells", "setting": "24 h", "value": 8.03, "unit": "%"},
      {"measurement": "G1 cells", "setting": "48 h", "value": 27.6, "unit": "%"},
      {"measurement": "G2/M cells", "setting": "48 h", "value": 57.6, "unit": "%"},
      {"measurement": "S cells", "setting": "48 h", "value": 13, "unit": "%"},
      {"measurement": "subG1 cells", "setting": "48 h", "value": 1.86, "unit": "%"}
    ]}
  ]
}
